Measurements: publication PMC11045757, “Group 3 medulloblastoma transcriptional networks collapse under domain specific EP300/CBP inhibition” (Nature Communications, 2024)
Values joined by “and” are separate entries in the source; they are usually repeats but may differ in a detail not shown here. Equal entries are not always repeated. Where two headings read alike, the source gives them in different places.

Assays:
[1] = test system: HDMB03 (HDMBO3) group 3 medulloblastoma cells; test: CellTiter-Glo dose-response growth assay; format: cell-based
Description: (§1) CellTiter-Glo assay was performed as per the manufacturer’s instructions, at the noted timepoint after compound treatment or plating. For Kelly, TE617T, RhJT, NCIH2122, NCIH650 and 143B, 500 cells were plated in normal growth media per well in a 384-well plate (Corning). HDMB03 and MB002 cells were plated in growth media at 500 cells/well in a 384-well plate. […] Cells were incubated for the noted timepoints prior to performing CellTiter-Glo assay as per the manufacturer’s instructions, and reading plates on an Envision 2104 microplate reader.

BRD4-BD1 (BRD4-1) [2] = molecular target: T1, BRD4-BD1 (BRD4-1) (Homo sapiens, UniProt O60885); test: Differential scanning fluorimetry (DSF) thermal shift; format: binding; settings: DSF; 5 μM protein, 100 μM compound; three independent experiments, average ± SD
T1 construct: BRD4-BD1 (residues 44-168); 6xHis (cleaved yes); host or cells: E. coli BL21 (DE3) RIL
Summary of the method: (§2)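 Thermal shift of 5 μM E. coli-expressed bromodomain with 100 μM compound in 50 mM HEPES pH 7.5, 150 mM NaCl, 2 mM DTT, 2% DMSO, 5X SYPRO Orange, quadruplicate. Heated 25→95 °C at 1 °C/min, fluorescence at 610 nm; ΔTm relative to DMSO reference wells.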

EP300 bromodomain [3] = molecular target: T2, EP300 bromodomain (Homo sapiens, UniProt Q09472); test: as above; format: binding; settings: DSF; 5 μM protein, 100 μM compound; three independent experiments, average ± SD
T2 construct: 6xHis (cleaved yes); host or cells: E. coli BL21 (DE3) RIL
T2 sequence (Q09472 1048-1161): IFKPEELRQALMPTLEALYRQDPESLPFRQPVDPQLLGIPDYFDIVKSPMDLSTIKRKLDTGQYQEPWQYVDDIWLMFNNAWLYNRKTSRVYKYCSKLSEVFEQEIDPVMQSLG
Summary of the method: as §2

CBP bromodomain [4] = molecular target: T3, CBP bromodomain (Homo sapiens, UniProt Q92793); test: as above; format: binding; settings: DSF; 5 μM protein, 100 μM compound; three independent experiments, average ± SD
T3 construct: CBP (residues 1081-1197); 6xHis (cleaved yes); host or cells: E. coli BL21 (DE3) RIL
T3 sequence (Q92793 1081-1197): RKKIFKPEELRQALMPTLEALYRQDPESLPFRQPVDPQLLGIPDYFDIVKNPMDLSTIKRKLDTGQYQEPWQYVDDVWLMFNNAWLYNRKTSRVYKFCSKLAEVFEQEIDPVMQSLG

CBP bromodomain [5] = test: as above; format: binding; settings: ΔTm (CBP)/ΔTm(BRD4)
CBP bromodomain [6] = molecular target: T3, CBP bromodomain; test: Isothermal titration calorimetry (ITC); format: binding; settings: single ITC experiment, data fit ± SEM
Description: (§3) After 18 h growth, the culture was harvested by centrifugation at 6000 × g for 25 min and stored at -80 °C. Harvested cell pellets were re-suspended in 50 mM Na/K phosphate buffer (pH 7.4) containing 100 mM NaCl, 40 mM imidazole, 0.01% w/v lysozyme and 0.01% v/v Triton X-100 at 4 °C for 1 h, subjected to sonication and the lysate was clarified by centrifugation (30,000 × g for 45 min at 4 °C). Proteins were purified by FPLC at 4 °C using columns and chromatography materials from GE Healthcare. […] Proteins were purified to homogeneity by size exclusion chromatography using Superdex 75 equilibrated with elution buffer (50 mM HEPES pH 7.5, 100 mM NaCl, 2 mM DTT). […] Pool fractions were combined, concentrated to 10–12 mg/ml, and aliquots were flash-frozen in liquid N2 and stored at −80 °C.

EP300 bromodomain [7] = molecular target: T2, EP300 bromodomain; test: Isothermal titration calorimetry (ITC); format: binding; settings: single ITC experiment, data fit ± SEM
Description: as §3

BRD4-BD1 (BRD4-1) [8] = molecular target: T1, BRD4-BD1 (BRD4-1); test: Isothermal titration calorimetry (ITC); format: binding
Description: At OD600 of 0.6, the culture was cooled down to 18 °C and induced with 0.1 mM IPTG. After 18 h growth, the culture was harvested by centrifugation at 6000 × g for 25 min and stored at -80 °C. Harvested cell pellets were re-suspended in 50 mM Na/K phosphate buffer (pH 7.4) containing 100 mM NaCl, 40 mM imidazole, 0.01% w/v lysozyme and 0.01% v/v Triton X-100 at 4 °C for 1 h, subjected to sonication and the lysate was clarified by centrifugation (30,000 × g for 45 min at 4 °C). Proteins were purified by FPLC at 4 °C using columns and chromatography materials from GE Healthcare. […] Proteins were purified to homogeneity by size exclusion chromatography using Superdex 75 equilibrated with elution buffer (50 mM HEPES pH 7.5, 100 mM NaCl, 2 mM DTT). All BRDs eluted as monomeric protein and were of crystallization grade quality (>95% purity as judged by SDS-PAGE). Pool fractions were combined, concentrated to 10–12 mg/ml, and aliquots were flash-frozen in liquid N2 and stored at −80 °C.
All experiments were conducted using an PEAQ-ITC calorimeter (Malvern Scientific). BRDs were buffer exchanged using PD10 columns (GE life sciences) into 50 mM HEPES pH7.5 and 100 mM NaCl (ITC buffer) before the experiment and concentrated to ∼10 mg/mL. Experiments were carried out in ITC buffer while stirring at 750 rpm through reverse titration. The microsyringe (40 μL load volume) was loaded with the protein sample (250–600 μM protein in ITC buffer) and inserted into the calorimetric cell (0.2 mL cell volume) consisting of compound (20–60 μM in ITC buffer). All titrations were conducted using an initial control injection of 0.2 μL followed by 13 identical injections (~3 μL per injection) with a duration of 2 s (per injection) and a spacing of 150 s between injections. The ratio of protein/compound was optimized to ensure complete saturation of the titrant before the final injection to ensure proper baseline determination. Data were corrected for dilution and analyzed using the MicroCal Origin software to determine the enthalpies of binding (ΔH) and binding constants as described. Thermodynamic parameters were calculated using the basic equation of thermodynamics (ΔG = ΔH − TΔS = −RTlnKB) where ΔG, ΔH and ΔS are the changes in free energy, enthalpy and entropy of binding, respectively. A single binding site model was used for all ligand-protein interactions.

[9] = test system: MB002 group 3 medulloblastoma cells; test: CellTiter-Glo dose-response growth assay; format: cell-based; settings: day 3; read-out: d3 IC50 MB002
Description: as §1

HDMB03 (HDMBO3) cells = test: ERCC spike-in RNAseq gene expression after 6 h treatment; format: cell-based; settings: HDMBO3, replicate values, Supplementary Fig 6c
Description: (§4) First, we examined global changes in gene expression induced by drug treatment.
(§5) External RNA consortium control RNAs (ERCC, Ambion) were added directly to Trizol, based on cell number prior to RNA extraction. RNA samples were treated with DNAse I (Invitrogen) prior to recovery. Samples were obtained in biological triplicate. Total RNA was subjected to ribosomal RNA depletion prior to library preparation using the Truseq Stranded Total Library Prep Kit (Illumina) and sequencing on a Nextseq-500 (paired end, 100 bp reads).
(§6) Sequences were aligned using HISAT2 (version 2.1.0)[77] in paired-end mode with default parameters to build version hg19 of the human genome to which the sequences of the ERCC synthetic spike-in RNAs (http://tools.invitrogen.com/downloads/ERCC92.fa) had been added. Per-gene expression was quantified using htseq-count[78] with parameters “-i gene_id --stranded=reverse -f bam -m,” and version 87 of the canonical GRCh37 gene list from RefSeq to which ERCC coordinates were added. TPM-normalized (Transcripts Per Million) expression was then computed for each gene and synthetic ERCC spike-in RNA. Per-gene exon length was calculated across all exons of all isoforms of each gene. The standard TPM-normalization strategy is: normterm = sum of (read count * read length/exon length) across all genes. TPM = read count * read length/exon length * 1e6/normterm. We used a loess regression to normalize the TPM values across all samples of the batch, using only the spike-in values to fit the loess by the “affy” R package[79] with function loess.normalize. This function allowed us to perform loess regression on a matrix of TPM values and used the ERCC subset of data for fitting the loess. The output from this was a matrix of normalized TPM values controlled by ERCC spike-ins.
(§7) We used the elbow method[81] to determine the k value in k-means cluster analysis.
(§8) Dependency analysis was performed using the 22Q4 release of the DepMap dataset, comprising seven medulloblastoma cell lines: UW228, DAOY, ONS76, D458, D425, D283MED, D341MED. Dependency was defined as a Chronos gene effect score of <−0.5, and gene lists were filtered for dependency in >2/7 medulloblastoma cell lines. […] PANTHER was used to define gene annotations, with unknown annotations assigned using individual assessment using the Genecards.org resource.

MB002 cells = test: as above; format: cell-based; settings: MB002, replicate values, Supplementary Fig 6c
Description: as §4, §5, §6, §7, §8

Row | IC50 ([1]; Homo sapiens, HD-MB03, HDMBO3 G3MB cell growth, read-out: IC50 (nM) HDMBO3) [nM] | ∆Tm (°C) BRD4-1 (BRD4-BD1 (BRD4-1) [2]) [°C] | ∆Tm (°C) EP300 (EP300 bromodomain [3]) [°C] | ∆Tm (°C) CBP (CBP bromodomain [4]) [°C] | Kd (CBP bromodomain [6]) [nM] | Kd (EP300 bromodomain [7]) [nM] | reduction of activity against BRD4 (BRD4-BD1 (BRD4-1) [8]; relative to CCS1477) | Kd (BRD4-BD1 (BRD4-1) [8]; single ITC experiment, data fit ± SEM) [nM] | Structure (SMILES) | Ratio CBP/BRD4 of ∆Tm (CBP bromodomain [5]) | IC50 ([1]; day 3, read-out: d3 IC50 HDMBO3) [nM] | IC50 [9] [µM] | Normalized MYC expression (HDMB03 (HDMBO3) cells) | Normalized MYC expression (MB002 cells)
1 | > 100000 | 2.1 ± 0.06 | 7.3 ± 1.3 | 7.8 ± 0.43 | 1550 ± 600 | 2300 ± 386 | ~ 10 fold | 4210 ± 400 | Cc1noc(C)c1-c1ccc2c(c1)nc(C1CCCC(=O)N1)n2C1CCC(NC(=O)OC(C)(C)C)CC1 (stereo not shown) [Compound 1] | 3.7 | – | – | – | –
2 | – | – | – | – | – | – | – | – | Cc1sc2c(c1C)C(c1ccc(Cl)cc1)=N[C@@H](CC(=O)OC(C)(C)C)c1nnc(C)n1-2 [JQ1] | – | 100 | 0.107 | 0.9657 and 0.7621 and 0.679 | 0.8713 and 1.005 and 0.8421
